System: Radical scavenging activity
Assay: Antioxidant activity assessed as DPPH free radical scavenging activity at 20 uM after 30 min by UV-vis spectrophotometric analysis relative to propyl gallate
Assay type: functional

Row | Structure (SMILES) | Activity [%]
1 | O=c1c(O[C@@H]2O[C@H](CO)[C@@H](O)[C@H](O)[C@H]2O)c(-c2ccc(O)c(O)c2)oc2cc(O)cc(O)c12 | 71.8
2 | COc1ccc(-c2oc3cc(O)cc(O)c3c(=O)c2O[C@@H]2O[C@H](CO)[C@@H](O)[C@H](O)[C@H]2O)cc1OC | 49.1
3 | NCCCCCCCCCCCC(=O)O | 87.1
